The source of these data is patent publication US12220420B2, “Combination therapy for cancer treatment” (Galera Labs, LLC, priority 2016, dated 2025).

Molecules are shown by their SMILES.

The test system of experiment [1] is lung cancer cells (H292). Briefly: Total glutathione levels, DTNB recycling spectrophotometric assay. The settings on record: 50 μM or 100 μM BSO, 24 hours. The experiment is classed as cell-based, human. The protocol:
(§1) The effect of buthionine sulfoximine (BSO) on reduced glutathione (GSH) levels in breast cancer cells (MB231) and lung cancer cells (H292) was examined. The cells were plated and grown to 75% confluency, then treated with either 50 μM BSO or 100 μM BSO for another 24 hours before harvesting for analysis for total glutathione levels using a DTNB recycling spectrophotometric assay.

The test system of experiment [2] is breast cancer cells (MB231). The experiment is described as above. Format: cell-based, human. The settings on record: 50 μM or 100 μM BSO, 24 hours. As for the experimental part:
as §1

For experiment [3], the system named is human lung cancer cells (H292). Briefly: PeroxyOrange-1 (PO-1) oxidation as a measure of steady-state H2O2. Format: cell-based. As for the experimental part:
The effects on H2O2 fluxes of a pentaaza macrocyclic ring complex (GC4419) provided in combination with inhibitors of H2O2 metabolism were tested in human lung cancer cells (H292). The H292 cells were treated with 20 μM GC4419 for 3 and 24 hours, and PeroxyOrange-1 (PO-1) oxidation was monitored as a measure of steady-state H2O2. […] Also, the combination of GC4419+BSO+AT for 3 hours (B-AT 4419 3) and 24 hours (B-AT 4419 24) further increased PO-1 oxidation to 3-fold greater than a control. The PO-1 oxidation was also monitored in dosing the cells three times with 100 μM hydrogen peroxide (H2O2).

Experiment [4] concerns lung cancer cells (H1299). The experiment can be described thus: 3-aminotriazole mediated inactivation of catalase (H2O2 flux). Format: cell-based, human. The settings on record: 20 μM GC4419, H1299. As for the experimental part:
(§2) The effect of the pentaaza macrocyclic ring complex GC4419 in increasing levels of H2O2 in cancer cells was further tested by measuring the 3-aminotriazole mediated inactivation of catalase, using a method as described in Ahmad et al, J. Biol Chem, 280(6), 4254-4263 (2005). Briefly, head and neck cancer cells (Cal27), lung cancer cells (H1299) and breast cancer cells (MB231) were grown in 60 mm dishes, transduced with 50 MOI adCat to genetically increase catalase expression, and allowed 48 hours to recover so that the activity of catalase could increase to maximal levels. Afterwards, 50 mM AT was added for 5 minutes, which irreversibly binds to and inhibits the catalase intermediate formed in the presence of H2O2. 20 μM GC4419 was added, and cells were collected at 10 minute intervals for 60 minutes, and the inhibition of catalase was determined. A Lowry's protein assay determined the total protein concentration of individual samples. This method provides a stoichiometry of one catalase molecule being inhibited for each molecule of H2O2, thereby providing for precise measurements of changes in H2O2 flux. The results are shown in FIG. 3 (left hand side is Cal27, middle is H1299, and right hand side is MB231).

The subject of experiment [5] is breast cancer cells (MB231). The experiment is described as above. The settings on record: 20 μM GC4419, MB231. Format: cell-based, human. The protocol:
as §2

Experiment [6] concerns Subcutaneous H1299 tumors. Briefly: Non-small cell lung cancer tumor xenograft model with or without radiation. Format: in vivo. The protocol: The effect of the pentaaza macrocyclic ring complex GC4419 was tested in vivo on non-small cell lung cancer (NSCLC) in a tumor xenograft model. Subcutaneous H1299 tumors were subjected to biologically equivalent fractionation schemes of 18 Gy×1 dose or 2 Gy×16 doses (delivered on consecutive days), 1 hour following an initial injection of 24 mg/kg GC4419. GC4419 was also administered on the next 4 consecutive days after the first injection (given, in the case of the 2 Gy fraction dose experiment, 1 hour prior to each of those 4 days' radiation treatments).

Experiment [7] concerns HN5 (HNSCC) tumors. The experiment can be described thus: Animal model of squamous cell carcinoma of the head and neck with or without radiation. The experiment is classed as in vivo. The protocol: The effect of GC4419 was tested in vivo on animal models of squamous cell carcinoma of the head and neck (HNSCC). GC4419 was delivered as a 24 mg/kg daily dose delivered as an ip bolus on 5 consecutive days starting 1 hour prior to irradiation. Radiation was delivered as a single dose of 12 Gy using a 10 mm collimated beam aimed at the center of the tumor.

The conditions of experiment [8]: Anderson 2015; cited from earlier work.
Experiment [9] has as its system H1299 cancer cells. Briefly: Clonogenic assay of FIG. 4, normalized surviving fraction. Format: cell-based, human. As to conditions: 20 μM GC4419, FIG. 4, control also about 1. The protocol: The effect of the pentaaza macrocyclic ring complex GC4419 in combination with inhibitors of hydrogen peroxide metabolism was tested on breast cancer cells (MB231) and non-small cell lung cancer cells (H1299) versus normal cells (HMEC normal mammary epithelial cells and HBEpC normal bronchial epithelial cells). The cells were plated and grown exponentially for 2 days. Either or both of 20 μM of the CG4419 compound and 100 μM BSO were added at time 0 of exposure, and 500 nM Auranofin (a thioredoxin reductase inhibitor) was added 48 hours after, for 15 minutes prior to a clonogenic assay.

For experiment [10] the following is noted: Tuder et al. 2003; cited from earlier work.
Experiment [11] deals with Breast cancer cells (MB231) and lung cancer cells (H1299). Briefly: Clonogenic killing in presence and absence of N-acetylcysteine (NAC). The experiment is classed as cell-based, human. The settings on record: 10 mM of NAC; 20 μM GC4419, 100 μM BSO, 500 nM Au. The protocol: Breast cancer cells (MB231) and lung cancer cells (H1299) were grown in culture to 75% confluence and treated with either 20 μM GC4419, or 100 μM BSO with 500 nM Au added after 48 hours, or all of GC4419, BSO and Au. The cancer cells were also treated with the same sets of compounds, but with the further addition of 10 mM of NAC. […] Thus, the results support that pentaaza macrocyclic ring complexes such as GC4419 combined with inhibitors of hydrogen peroxide metabolism can selectively kill cancer cells versus normal cells via oxidative stress correlated with increase H2O2 fluxes.

For experiment [12], the system named is Non-small cell lung cancer cells (H1299). Briefly: Clonogenic cell survival assay, auranofin alone and with ionizing radiation. Format: cell-based, human. As for the experimental part: The effects of an inhibitor of hydrogen peroxide metabolism, auranofin (a thioredoxin reductase inhibitor), on cancer cells was tested in a clonogenic cell survival assay to determine the effects of the compound alone and in combination with ionizing radiation. Non-small cell lung cancer cells (H1299) were exponentially grown and treated with auranofin (Au) either by itself for 15 minutes, or 15 minutes prior to the first of two ionizing radiation (IR) doses (2 Gy each) spaced 24 hours apart. After the last ionizing radiation dose, the cells were trypsinized, counted, replated at varying lower densities and incubated for 12 days. Plates were stained and counted for clonogenic survival assays. […] Furthermore, treatment with auranofin sensitized the cancer cells to radiation, thereby increasing the efficiency of the ionizing radiation in cell killing (Auranofin+IR) as compared to administration of ionizing radiation alone (IR 4 Gy).

Setting [13] is: 24 mg/kg GC4419, 5 consecutive days.
[14] abbreviates: 24 mg/kg daily ip bolus, 5 consecutive days.

Take `CCCCS(=N)(=O)CCC(N)C(=O)O` (stereo not shown) [BSO, buthionine sulfoximine]: the glutathione levels result in experiment [1] and in experiment [2] was “significantly decreases” each time.
As for `[Cl][Mn][Cl].c1cc2nc(c1)CN[C@H]1CCCC[C@@H]1NCCN[C@H]1CCCC[C@@H]1NC2` [GC4419], the “increase in PO-1 oxidation as compared to the control” value in [3] (20 μM GC4419, 3 hours) is given as 1.5 fold. Moreover, in experiment [3] (20 μM GC4419, 24 hours), the “increase in PO-1 oxidation as compared to the control” value amounted to 1.5 fold. The “steady-state levels of intracellular H2O2 flux, normalized to the control” value in experiment [4] is “significant increases”. Moreover, in experiment [5], the “steady-state levels of intracellular H2O2 flux, normalized to the control” value is on record as “significant increases”. Besides, the “response of NSCLC tumors to radiation” value in [6] (24 mg/kg GC4419 1 hour before 18 Gy×1 or 2 Gy×16) is “significantly enhancing radiation induced growth delay, and survival”. In experiment [6] (setting [13]), the “anti-cancer effect, cancer size as compared to the control” value is “reduced cancer size” and the “survival as compared to the control” value is “improved survival”. Moreover, in experiment [7] (setting [14]), the tumor growth result is listed as “significant growth delay” and the “tumor volumes as compared to a control” value was “reduced tumor volumes”. In addition, the “tumor growth, combination with radiation” value in [7] (24 mg/kg daily ×5 starting 1 hour prior to single dose of 12 Gy) is recorded as “even greater growth delays”. Besides, the oral mucositis entry in [8] is given as “reduce oral mucositis”. The “normalized surviving cell fraction (on a log scale)” value in experiment [9] is reported as “about 1”. In addition, in experiment [10], the “VEGFr inhibitor-induced pulmonary disease” value is “attenuate VEGFr inhibitor-induced pulmonary disease”.
Take `CC(=O)N[C@@H](CS)C(=O)O` [NAC, N-acetylcysteine]: the “effect of NAC on cell killing caused by GC4419+Au and/or BSO” value in experiment [11] is “nearly completely inhibited the cell killing”.
Consider `CC(=O)OCC1OC([S-])C(OC(C)=O)C(OC(C)=O)C1OC(C)=O.CCP(CC)CC.[Au+]` (stereo not shown) [auranofin, gold(+1)cation; 3,4,5-triacetyloxy-6-(acetyloxymethyl)oxane-2-thiolate; triethylphosphanium], for which the “normalized surviving cell fraction” value in experiment [12] (250 nM of auranofin, FIG. 6) is given as “over 0.5”. In [12] (250 nM, 15 minutes), the “cell killing as compared to a control” value is listed as “significant cell killing”. Moreover, the “response of cancer cells to ionizing radiation” value in experiment [12] (15 minutes prior to first of two IR doses (2 Gy each), versus IR 4 Gy alone) is reported as “significantly increases”.
